According to US20070010489A1 (priority 2002, published 2007):

system: wild-type HIV-1 strain IIIB; assay: microbe, parasite or virus in culture; format: cell-based; details: Human immunodeficiency virus 1, IIIB

Compound | EC50
CCOP(=O)(CCN1CCN(CC(NC(=O)OC2COC3OCCC23)C(O)CN(CC(C)C)S(=O)(=O)c2ccc(OC)cc2)CC1)OCC (centres unmarked) | 0.05 to 0.5 µM
CCOP(=O)(COC1CCN(CC(NC(=O)OC2COC3OCCC23)C(O)CN(CC(C)C)S(=O)(=O)c2ccc(OC)cc2)CC1)OCC (centres unmarked) | 0.05 to 0.5 µM
CCOP(=O)(CN1CC=C(CC(NC(=O)OC2COC3OCCC23)C(O)CN(CC(C)C)S(=O)(=O)c2ccc(OC)cc2)CC1)OCC (centres unmarked) | < 0.05 µM
COc1ccc(S(=O)(=O)N(CC(C)C)CC(O)C(CC2=CCN(CCP(=O)(OC)OC)CC2)NC(=O)OC2COC3OCCC23)cc1 (centres unmarked) | 0.05 to 0.5 µM
COc1ccc(S(=O)(=O)N(CC(C)C)CC(O)C(CC2=CCN(CCP(=O)(OCc3ccccc3)OCc3ccccc3)CC2)NC(=O)OC2COC3OCCC23)cc1 (centres unmarked) | < 0.05 µM
CCOP(=O)(CCC1=CCN(CC(NC(=O)OC2COC3OCCC23)C(O)CN(CC(C)C)S(=O)(=O)c2ccc(OC)cc2)CC1)OCC (centres unmarked) | < 0.05 µM
CCOP(=O)(Cc1ccc(NCC(NC(=O)OC2COC3OCCC23)C(O)CN(CC(C)C)S(=O)(=O)c2ccc(OC)cc2)cc1)OCC (centres unmarked) | < 0.05 µM
COc1ccc(S(=O)(=O)N(CC(C)C)CC(O)C(CNc2ccc(CP(=O)(OCc3ccccc3)OCc3ccccc3)cc2)NC(=O)OC2COC3OCCC23)cc1 (centres unmarked) | < 0.05 µM
CCOP(=O)(Cc1ccc(N(C)CC(NC(=O)OC2COC3OCCC23)C(O)CN(CC(C)C)S(=O)(=O)c2ccc(OC)cc2)cc1)OCC (centres unmarked) | < 0.05 µM
CCOP(=O)(Cc1ccc2c(c1)CCN(CC(NC(=O)OC1COC3OCCC13)C(O)CN(CC(C)C)S(=O)(=O)c1ccc(OC)cc1)C2)OCC (centres unmarked) | < 0.05 µM
CCOP(=O)(CNc1ccc(CC(NC(=O)OC2COC3OCCC23)C(O)CN(CC(C)C)S(=O)(=O)c2ccc(OC)cc2)cc1)OCC (centres unmarked) | < 0.05 µM
COc1ccc(S(=O)(=O)N(CC(C)C)CC(O)C(Cc2ccc(NCP(=O)(OCc3ccccc3)OCc3ccccc3)cc2)NC(=O)OC2COC3OCCC23)cc1 (centres unmarked) | < 0.05 µM
COc1ccc(S(=O)(=O)N(CC(C)C)CC(O)C(Cc2ccc(OCc3ccccc3)cc2)NC(=O)OC2COC3OCCC23)cc1 (centres unmarked) | < 0.05 µM
COc1ccc(S(=O)(=O)N(CCN2CCOCC2)CC(O)C(Cc2ccc(OCP(=O)(OCc3ccccc3)OCc3ccccc3)cc2)NC(=O)OC2COC3OCCC23)cc1 (centres unmarked) | 0.05 to 0.5 µM
COc1ccc(S(=O)(=O)N(CC2CCN(C=O)CC2)CC(O)C(Cc2ccc(OCP(=O)(OCc3ccccc3)OCc3ccccc3)cc2)NC(=O)OC2COC3OCCC23)cc1 (centres unmarked) | 0.05 to 0.5 µM
Cc1ccc(C(=O)NC(Cc2ccc(OCP(=O)(OCc3ccccc3)OCc3ccccc3)cc2)C(O)CN(CC(C)C)S(=O)(=O)c2ccc(N)cc2)cc1O (centres unmarked) | 0.05 to 0.5 µM
CCOP(=O)(COc1ccc(CC(NC(=O)OC2COC3OCCC23)C(O)CN(CC(C)C)S(=O)(=O)c2ccc(N)cc2)cc1)OCC (centres unmarked) | < 0.05 µM
CCOP(=O)(COc1ccc(CC(NC(=O)OC2COC3OCCC23)C(O)CN(CC(C)C)S(=O)(=O)c2ccc([N+](=O)[O-])cc2)cc1)OCC (centres unmarked) | < 0.05 µM
CCNc1ccc(S(=O)(=O)N(CC(C)C)CC(O)C(Cc2ccc(OCP(=O)(OCC)OCC)cc2)NC(=O)OC2COC3OCCC23)cc1 (centres unmarked) | < 0.05 µM
CC(C)CN(CC(O)C(Cc1ccc(OCP(=O)(OCc2ccccc2)OCc2ccccc2)cc1)NC(=O)OC1COC2OCCC12)S(=O)(=O)c1ccc(N)cc1 (centres unmarked) | < 0.05 µM
CCOP(=O)(COc1ccc(CC(NC(=O)OC2COC3OCCC23)C(O)CN(CC(C)C)S(=O)(=O)c2cccc(N)c2)cc1)OCC (centres unmarked) | 0.05 to 0.5 µM
CC(C)CN(CC(O)C(Cc1ccc(OCP(=O)(OCc2ccccc2)OCc2ccccc2)cc1)NC(=O)OC1COC2OCCC12)S(=O)(=O)c1cccc(N)c1 (centres unmarked) | < 0.05 µM
CCCCOC(=O)C(C)OP(=O)(COc1ccc(CC(NC(=O)OC2COC3OCCC23)C(O)CN(CC(C)C)S(=O)(=O)c2cccc(N)c2)cc1)Oc1ccccc1 (centres unmarked) | 0.05 to 0.5 µM
CC(C)CN(CC(O)C(Cc1ccc(OCP(=O)(OCc2ccccc2)OCc2ccccc2)cc1)NC(=O)OC1COC2OCCC12)S(=O)(=O)c1ccccc1 (centres unmarked) | < 0.05 µM
CC(C)CN(CC(O)C(Cc1ccc(OCP(=O)(OCc2ccccc2)OCc2ccccc2)cc1)NC(=O)OC1COC2OCCC12)S(=O)(=O)c1ccc(F)cc1 (centres unmarked) | < 0.05 µM

Compound | EC50
CC(C)CN(CC(O)C(Cc1ccc(OCP(=O)(OCc2ccccc2)OCc2ccccc2)cc1)NC(=O)OC1COC2OCCC12)S(=O)(=O)c1ccc(C(F)(F)F)cc1 (centres unmarked) | < 0.05 µM
CC(C)CN(CC(O)C(Cc1ccc(OCP(=O)(OCc2ccccc2)OCc2ccccc2)cc1)NC(=O)OC1COC2OCCC12)S(=O)(=O)c1ccc(OC(F)(F)F)cc1 (centres unmarked) | < 0.05 µM
CC(C)CN(CC(O)C(Cc1ccc(OCP(=O)(OCc2ccccc2)OCc2ccccc2)cc1)NC(=O)OC1COC2OCCC12)S(=O)(=O)c1ccc(C#N)cc1 (centres unmarked) | < 0.05 µM
CC(C)CN(CC(O)C(Cc1ccc(OCP(=O)(OCc2ccccc2)OCc2ccccc2)cc1)NC(=O)OC1COC2OCCC12)S(=O)(=O)N1CCN(C)CC1 (centres unmarked) | 0.05 to 0.5 µM
CC(C)CN(CC(O)C(Cc1ccc(OCP(=O)(OCc2ccccc2)OCc2ccccc2)cc1)NC(=O)OC1COC2OCCC12)C(=O)OC(C)(C)C (centres unmarked) | 0.05 to 0.5 µM
CC(C)CN(CC(O)C(Cc1ccccc1)NC(=O)OC1COC2OCCC12)S(=O)(=O)c1ccc(O)cc1 (centres unmarked) | < 0.05 µM
CC(C)CN(CC(O)C(Cc1ccccc1)NC(=O)OC1COC2OCCC12)S(=O)(=O)c1cccc(O)c1 (centres unmarked) | < 0.05 µM
CC(C)CN(CC(O)C(Cc1ccccc1)NC(=O)OC1COC2OCCC12)S(=O)(=O)c1cccc(OCP(=O)(O)O)c1 (centres unmarked) | 0.05 to 0.5 µM
COc1ccc(S(=O)(=O)N(CC(C)C)CC(O)C(Cc2ccccc2)NC(=O)OC2COC3OCCC23)cc1O (centres unmarked) | < 0.05 µM
COc1ccc(S(=O)(=O)N(CC(C)C)CC(O)C(Cc2ccccc2)NC(=O)OC2COC3OCCC23)cc1OCP(=O)(O)O (centres unmarked) | 0.05 to 0.5 µM
CCOP(=O)(COc1cc(S(=O)(=O)N(CC(C)C)CC(O)C(Cc2ccccc2)NC(=O)OC2COC3OCCC23)ccc1OC)OCC (centres unmarked) | 0.05 to 0.5 µM
CCOP(=O)(COc1cc(S(=O)(=O)N(CC(C)C)CC(O)C(Cc2ccccc2)NC(=O)OC2COC3OCCC23)ccc1O)OCC (centres unmarked) | 0.05 to 0.5 µM
CCOP(=O)(COc1ccc(S(=O)(=O)N(CC(C)C)CC(O)C(Cc2ccc(N(C)C)cc2)NC(=O)OC2COC3OCCC23)cc1)OCC (centres unmarked) [NMe2, OEt] | < 0.05 µM
CC(C)CN(CC(O)C(Cc1ccc(OCCN(C)C)cc1)NC(=O)OC1COC2OCCC12)S(=O)(=O)c1ccc(OCP(=O)(O)O)cc1 (centres unmarked) [OC2H4NMe2, OH] | 0.5 to 5 µM
CC(C)CN(CC(O)C(Cc1ccc(OCCN(C)C)cc1)NC(=O)OC1COC2OCCC12)S(=O)(=O)c1ccc(OCP(=O)(OCc2ccccc2)OCc2ccccc2)cc1 (centres unmarked) [OC2H4—NMe2, OBn] | 0.05 to 0.5 µM
CC(C)CN(CC(O)C(Cc1ccc(O)cc1)NC(=O)OC1COC2OCCC12)S(=O)(=O)c1ccc(OCP(=O)(OCc2ccccc2)OCc2ccccc2)cc1 (centres unmarked) [OH, OBn] | 0.05 to 0.5 µM
CC(C)CN(CC(O)C(Cc1ccc(O)cc1)NC(=O)OC1COC2OCCC12)S(=O)(=O)c1cccc(N)c1 (centres unmarked) [OH, m-NH2] | 0.05 to 0.5 µM
CC(C)CN(CC(O)C(Cc1ccc(O)cc1)NC(=O)OC1COC2OCCC12)S(=O)(=O)c1ccc(N)cc1 (centres unmarked) [OH, p-NH2] | 0.05 to 0.5 µM
CC(C)CN(C[C@@H](O)[C@H](Cc1ccccc1)NC(=O)O[C@H]1CO[C@H]2OCC[C@H]21)S(=O)(=O)c1ccc(OCP(=O)(Oc2ccccc2)O[C@@H](C)C(=O)OC(C)C)cc1 (some centres unmarked) [OPh, Lac-iPr] | 0.5 to 5 µM
COc1ccc(S(=O)(=O)N(CC(C)C)C[C@@H](OP(=O)(O)O)[C@H](Cc2ccccc2)NC(=O)O[C@H]2CO[C@H]3OCC[C@H]32)cc1 [Phosphate Prodrug of 94-003] | < 0.05 µM
CC(C)CN(C[C@@H](OP(=O)(O)O)[C@H](Cc1ccccc1)NC(=O)O[C@H]1CCOC1)S(=O)(=O)c1ccc(N)cc1 [Phosphate Prodrug of Ampenavir] | 0.05 to 0.5 µM
COc1ccc(S(=O)(=O)N(CC(C)C)CC(O)C(Cc2ccc(P(=O)(O)O)cc2)NC(=O)OC2COC3OCCC23)cc1 (centres unmarked) [drawing 1770 R1=OH R2=OH] | > 5 µM
COc1ccc(S(=O)(=O)N(CC(C)C)CC(O)C(Cc2ccc(OCP(=O)(OCc3ccccc3)OC(C)C(=O)OCc3ccccc3)cc2)NC(=O)OC2COC3OCCC23)cc1 (centres unmarked) [drawing 1775 R1=OBn R2=Lac-Bn] | 0.05 to 0.5 µM
CCOP(=O)(CCNCc1ccc(CC(NC(=O)OC2COC3OCCC23)C(O)CN(CC(C)C)S(=O)(=O)c2ccc(OC)cc2)cc1)OCC (centres unmarked) [drawing 1779 R1=Et R2=Et] | < 0.05 µM
CCOP(=O)(CON=Cc1ccc(CC(NC(=O)OC2COC3OCCC23)C(O)CN(CC(C)C)S(=O)(=O)c2ccc(OC)cc2)cc1)OCC (centres unmarked) [drawing 1781 R1=Et R2=Et] | < 0.05 µM

same assay, conditions: Human immunodeficiency virus 1, IIIB, MT2, 120 h, read-out: Anti-HIV-1 Cell Culture Activity EC50

Compound | EC50
CCCCOC(=O)CNP(=O)(COc1ccc(CC(NC(=O)OC2COC3OCCC23)C(O)CN(CC(C)C)S(=O)(=O)c2ccc(OC)cc2)cc1)NCC(=O)OCCCC (centres unmarked) [Compound 16b] | 0.0175 ± 0.0105 µM

same assay, conditions: Human immunodeficiency virus 1, IIIB, class symbols

Compound | EC50
CCOC(=O)C(C)OP(=O)(COc1ccc2c(c1)CCN(CC(NC(=O)OC1COC3OCCC13)C(O)CN(CC(C)C)S(=O)(=O)c1ccc(OC)cc1)C2)Oc1ccccc1 (centres unmarked) | 0.05 to 0.5 µM
COC(=O)C(C)OP(=O)(COc1ccc(CC(NC(=O)OC2COC3OCCC23)C(O)CN(CC(C)C)S(=O)(=O)c2ccc(OC)cc2)cc1)Oc1ccccc1 [drawing 1775 R1=OPh R2=(R)Lac-Me] | < 0.05 µM
COc1ccc(S(=O)(=O)N(CC(C)C)CC(O)C(Cc2ccc(NCP(=O)(NC(C)C(=O)OC(C)C)Oc3ccccc3)cc2)NC(=O)OC2COC3OCCC23)cc1 (centres unmarked) [drawing 1820] | < 0.05 µM

same assay, conditions: class symbols

Compound | EC50
COc1ccc(S(=O)(=O)N(CC(C)C)CC(O)C(Cc2ccc(NCP(=O)(NC(C)C(=O)OC(C)C)Oc3ccccc3)cc2)NC(=O)OC2COC3OCCC23)cc1 (centres unmarked) [drawing 1821] | 0.05 to 0.5 µM

same assay, conditions: read-out: Anti-HIV-1 Cell Culture Activity EC50

Compound | EC50
CCCCOC(=O)C(CC(C)C)NP(=O)(COc1ccc(CC(NC(=O)OC2COC3OCCC23)C(O)CN(CC(C)C)S(=O)(=O)c2ccc(OC)cc2)cc1)NC(CC(C)C)C(=O)OCCCC (centres unmarked) [Example 16h] | 0.12 ± 0.042 µM
CCOC(=O)C(Cc1ccccc1)NP(=O)(COc1ccc(CC(NC(=O)OC2COC3OCCC23)C(O)CN(CC(C)C)S(=O)(=O)c2ccc(OC)cc2)cc1)NC(Cc1ccccc1)C(=O)OCC (centres unmarked) [Example 16i] | 0.017 ± 0.012 µM
CCOC(=O)C(C)OP(=O)(O)COc1ccc(CC(NC(=O)OC2COC3OCCC23)C(O)CN(CC(C)C)S(=O)(=O)c2ccc(OC)cc2)cc1 (centres unmarked) [Met LX] | 1.75 ± 0.354 µM
COc1ccc(S(=O)(=O)N(CC(C)C)CC(O)C(Cc2ccc(OCP(=O)(O)NC(C)C(=O)O)cc2)NC(=O)OC2COC3OCCC23)cc1 (centres unmarked) [Met X] | > 10 µM
